Structures can show the parent of a compound that is named as a salt. Where two headings read alike, the source gives them in different places.
What was measured:
Format in all cases: biochemical
[1] = molecular target: T1, human JAK1 (a.a. 837-1142) (Homo sapiens, UniProt P23458); experiment: In vitro JAK kinase assay (HTRF, phosphorylation of a biotinylated peptide), JAK1; settings: read-out: JAK1 IC50
T1 construct: human JAK1 (a.a. 837-1142); His tag (N); made in house; host or cells: insect cells (baculovirus)
Procedure, shortened: (§1)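 Kinase activity was measured as phosphorylation of a biotinylated peptide, with ATP at 90 μM for JAK1, 30 μM for JAK2 and 3 μM for JAK3. Reactions ran 1 hr at room temperature, were stopped with EDTA plus SA-APC and Eu-Py20, and were read by HTRF after 40 minutes of antibody binding.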

[2] = molecular target: T2, human JAK2 (a.a. 828-1132) (Homo sapiens, UniProt O60674); experiment: In vitro JAK kinase assay (HTRF, phosphorylation of a biotinylated peptide), JAK2
T2 construct: JAK2 (a.a. 828-1132); His tag (N); made in house; host or cells: insect cells (baculovirus)
Procedure, shortened: as §1

[3] = molecular target: T3, Recombinant Human Anaplastic Lymphoma Kinase (Homo sapiens, UniProt Q9UM73); experiment: ALK HTRF kinase assay
T3 construct: purchased Invitrogen, Carlsbad, Calif
Procedure, shortened: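 Compounds were incubated with recombinant human ALK and a biotin-tagged peptide substrate. Product was captured with streptavidin-APC and probed with a europium anti-phosphotyrosine antibody, and plates were read for time-resolved fluorescence. Dose-response data were fitted to derive IC50.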

[4] = molecular target: T4, human JAK3 (a.a. 781-1124) (Homo sapiens, UniProt P52333); experiment: In vitro JAK kinase assay (HTRF, phosphorylation of a biotinylated peptide), JAK3
T4 construct: JAK3 (a.a. 781-1124); His tag (N); made in house; host or cells: insect cells (baculovirus)
Procedure, shortened: as §1

TYK2 = TYK2 (Homo sapiens, UniProt P29597); experiment: TYK2 kinase inhibition (Table A1)
[5] = compound at a concentration of 500 nM or 1 mM (not specified), cells shown as percentage
[6] = Table B1, cells without percent sign
[7] = method AA1 (90 μM ATP) or AA2 (1000 μM ATP), not stated per value
[8] = method AA1 (30 μM ATP) or AA2 (1000 μM ATP), not stated per value
[9] = compound at 500 nM or 1 mM, 90 μM ATP
[10] = method AA1 (3 μM ATP) or AA2 (1000 μM ATP), not stated per value

T1 sequence (P23458 849-1154): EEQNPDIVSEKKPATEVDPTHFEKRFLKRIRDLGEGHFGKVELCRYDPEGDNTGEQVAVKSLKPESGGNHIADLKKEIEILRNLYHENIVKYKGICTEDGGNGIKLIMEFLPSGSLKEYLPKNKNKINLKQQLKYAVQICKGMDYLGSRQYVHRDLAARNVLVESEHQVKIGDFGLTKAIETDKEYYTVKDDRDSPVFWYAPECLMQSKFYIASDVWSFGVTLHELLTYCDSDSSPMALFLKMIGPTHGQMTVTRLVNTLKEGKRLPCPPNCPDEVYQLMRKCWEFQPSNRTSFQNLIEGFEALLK
Sequence of TYK2 (P29597 whole entry): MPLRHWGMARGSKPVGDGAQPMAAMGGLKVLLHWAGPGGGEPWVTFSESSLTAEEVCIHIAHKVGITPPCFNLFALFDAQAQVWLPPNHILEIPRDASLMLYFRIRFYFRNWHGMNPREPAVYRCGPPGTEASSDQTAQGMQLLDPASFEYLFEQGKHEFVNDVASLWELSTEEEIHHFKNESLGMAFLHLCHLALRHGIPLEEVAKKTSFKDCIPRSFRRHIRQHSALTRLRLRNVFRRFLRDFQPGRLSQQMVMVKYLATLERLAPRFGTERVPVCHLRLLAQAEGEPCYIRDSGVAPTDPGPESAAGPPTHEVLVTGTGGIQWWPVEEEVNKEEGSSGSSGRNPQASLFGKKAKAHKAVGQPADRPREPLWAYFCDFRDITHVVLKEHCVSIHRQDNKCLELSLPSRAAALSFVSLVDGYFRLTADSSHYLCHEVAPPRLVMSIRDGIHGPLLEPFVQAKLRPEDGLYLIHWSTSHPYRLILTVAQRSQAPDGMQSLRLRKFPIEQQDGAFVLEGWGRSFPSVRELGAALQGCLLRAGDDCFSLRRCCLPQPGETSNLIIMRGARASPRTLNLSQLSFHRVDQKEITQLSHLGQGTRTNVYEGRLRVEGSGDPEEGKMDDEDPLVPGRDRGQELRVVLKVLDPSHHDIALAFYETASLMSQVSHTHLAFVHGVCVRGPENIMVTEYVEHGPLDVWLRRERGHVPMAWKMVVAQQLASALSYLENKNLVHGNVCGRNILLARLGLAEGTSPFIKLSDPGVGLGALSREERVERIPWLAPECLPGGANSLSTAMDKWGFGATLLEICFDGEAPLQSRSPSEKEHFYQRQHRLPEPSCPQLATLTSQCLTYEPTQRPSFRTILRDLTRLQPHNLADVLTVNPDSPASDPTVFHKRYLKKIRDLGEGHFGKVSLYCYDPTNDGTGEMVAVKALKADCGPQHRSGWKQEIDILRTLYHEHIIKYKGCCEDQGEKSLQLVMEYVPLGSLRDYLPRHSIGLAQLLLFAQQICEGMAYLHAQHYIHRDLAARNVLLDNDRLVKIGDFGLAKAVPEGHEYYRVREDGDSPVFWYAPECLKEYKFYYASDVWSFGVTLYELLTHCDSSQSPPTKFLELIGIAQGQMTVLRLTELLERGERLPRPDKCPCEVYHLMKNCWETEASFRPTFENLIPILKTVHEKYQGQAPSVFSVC
T3 sequence (Q9UM73 19-1620): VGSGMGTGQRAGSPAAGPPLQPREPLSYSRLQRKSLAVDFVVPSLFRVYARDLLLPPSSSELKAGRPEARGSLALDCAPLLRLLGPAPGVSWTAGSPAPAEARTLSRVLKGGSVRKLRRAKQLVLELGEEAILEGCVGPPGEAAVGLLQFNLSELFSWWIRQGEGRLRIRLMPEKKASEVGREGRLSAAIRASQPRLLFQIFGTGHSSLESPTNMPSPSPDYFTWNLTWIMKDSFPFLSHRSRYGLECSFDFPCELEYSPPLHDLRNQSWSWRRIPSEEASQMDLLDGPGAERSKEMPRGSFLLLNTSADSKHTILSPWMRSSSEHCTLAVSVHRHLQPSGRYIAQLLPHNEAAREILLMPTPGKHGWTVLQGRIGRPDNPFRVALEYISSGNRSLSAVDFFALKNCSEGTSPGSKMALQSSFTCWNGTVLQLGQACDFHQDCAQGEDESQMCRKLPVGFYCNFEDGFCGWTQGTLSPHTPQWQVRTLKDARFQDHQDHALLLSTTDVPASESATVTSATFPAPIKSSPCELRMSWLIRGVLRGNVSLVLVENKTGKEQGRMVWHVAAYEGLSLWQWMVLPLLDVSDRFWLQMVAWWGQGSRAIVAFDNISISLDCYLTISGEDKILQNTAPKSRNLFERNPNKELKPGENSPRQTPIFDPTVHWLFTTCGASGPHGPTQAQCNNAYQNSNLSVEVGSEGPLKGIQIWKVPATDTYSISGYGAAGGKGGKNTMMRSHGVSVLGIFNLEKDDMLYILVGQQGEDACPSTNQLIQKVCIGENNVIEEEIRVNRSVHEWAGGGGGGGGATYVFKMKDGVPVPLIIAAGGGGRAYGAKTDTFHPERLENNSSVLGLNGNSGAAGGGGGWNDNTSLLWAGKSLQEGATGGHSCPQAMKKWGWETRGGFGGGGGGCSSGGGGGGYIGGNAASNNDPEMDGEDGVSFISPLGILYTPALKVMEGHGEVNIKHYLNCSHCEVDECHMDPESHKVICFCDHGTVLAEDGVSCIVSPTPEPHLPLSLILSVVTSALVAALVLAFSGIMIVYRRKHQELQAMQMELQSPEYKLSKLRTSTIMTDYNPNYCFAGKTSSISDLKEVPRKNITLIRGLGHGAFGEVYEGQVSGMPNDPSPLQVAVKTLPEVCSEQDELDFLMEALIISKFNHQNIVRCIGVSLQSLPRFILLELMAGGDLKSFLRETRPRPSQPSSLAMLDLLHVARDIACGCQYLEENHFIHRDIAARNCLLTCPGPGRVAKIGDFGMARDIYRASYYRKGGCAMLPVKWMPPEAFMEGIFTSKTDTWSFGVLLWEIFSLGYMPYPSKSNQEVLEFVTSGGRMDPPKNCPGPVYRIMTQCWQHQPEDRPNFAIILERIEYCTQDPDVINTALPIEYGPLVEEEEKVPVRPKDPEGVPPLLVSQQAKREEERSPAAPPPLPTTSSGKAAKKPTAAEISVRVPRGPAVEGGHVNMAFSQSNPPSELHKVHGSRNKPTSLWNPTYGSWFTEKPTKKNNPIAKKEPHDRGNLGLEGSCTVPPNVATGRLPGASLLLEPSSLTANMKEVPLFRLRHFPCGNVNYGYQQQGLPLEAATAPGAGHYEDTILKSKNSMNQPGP
T4 sequence (P52333 781-1124): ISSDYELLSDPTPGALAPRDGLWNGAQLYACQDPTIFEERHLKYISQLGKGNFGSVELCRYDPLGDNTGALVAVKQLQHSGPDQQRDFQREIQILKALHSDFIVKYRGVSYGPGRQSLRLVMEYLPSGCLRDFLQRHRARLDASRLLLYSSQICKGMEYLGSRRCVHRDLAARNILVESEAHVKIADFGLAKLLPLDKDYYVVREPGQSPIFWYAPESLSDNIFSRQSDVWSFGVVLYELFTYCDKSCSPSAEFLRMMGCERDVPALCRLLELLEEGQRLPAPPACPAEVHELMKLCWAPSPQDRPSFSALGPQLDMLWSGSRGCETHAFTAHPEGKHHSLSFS
T2 sequence (O60674 828-1132): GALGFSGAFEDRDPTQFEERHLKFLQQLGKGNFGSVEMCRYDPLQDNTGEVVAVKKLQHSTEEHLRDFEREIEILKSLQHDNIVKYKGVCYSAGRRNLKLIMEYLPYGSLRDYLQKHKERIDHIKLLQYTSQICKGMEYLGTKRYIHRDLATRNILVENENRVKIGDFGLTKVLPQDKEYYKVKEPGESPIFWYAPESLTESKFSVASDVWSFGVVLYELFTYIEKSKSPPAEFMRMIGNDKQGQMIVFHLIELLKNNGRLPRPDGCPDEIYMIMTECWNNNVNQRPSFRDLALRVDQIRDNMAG

Row | SMILES | IC50 ([1]; Table B1) [nM] | IC50 ([2]; Table B1) [nM] | ALK % of inhibition at a concentration of 500 nM or 1 mM [3, 5] [%] | IC50 ([4]; Table B1) [nM] | IC50 (TYK2; Table B1) [nM] | other results
1 | N#Cc1ccc(NC(=O)Nc2cc3cc(c2)Nc2nc(ncc2Cl)Nc2cccc(c2)CC3)cc1 [Example B212, N-[6-Chloro-2,4,8,22-tetraazatetracyclo[14.3.1.1(3,7).1(9,13)]docosa-1(20),3(22),4,6,9(21),10,12,16,18-nonaen-11-yl]-N′-(4-cyanophenyl)urea trifluoroacetate] | 400 | 238 | 14 | 312 | 500 | –
2 | O=C(Nc1ccc2cc1CCc1cccc(c1)Nc1ncc(Cl)c(n1)N2)C1CCN(C(=O)Cc2ccccc2)CC1 [Example A35, N-[6-Chloro-2,4,8,22-tetraazatetracyclo[14.3.1.1(3,7).1(9,13)]docosa-1(20),3(22),4,6,9(21),10,12,16,18-nonaen-12-yl]-1-(phenylacetyl)piperidine-4-carboxamide trifluoroacetate] | – | – | – | – | – | IC50 [1, 7]: 42 nM; IC50 [2, 8]: 62 nM; ALK % of inhibition at a concentration of 500 nM or 1 mM [3, 9]: 38%; IC50 [4, 10]: 82 nM; IC50 (TYK2): 228 nM
3 | O=C(Nc1ccc2cc1CCc1cncc(c1)Nc1ncc(Cl)c(n1)N2)N[C@H]1CCNC1 [Example B25, N-[6-Chloro-2,4,8,18,22-pentaazatetracyclo[14.3.1.1(3,7).1(9,13)]docosa-1(20),3(22),4,6,9(21),10,12,16,18-nonaen-12-yl]-N′-[(3S)-pyrrolidin-3-yl]urea trihydrochloride] | 12 | 36 | 14 | 153 | 50 | –
4 | O=C(Nc1cc2cc(c1)Nc1nc(ncc1Cl)Nc1cccc(c1)CC2)c1ccno1 [Example B206, N-[6-Chloro-2,4,8,22-tetraazatetracyclo[14.3.1.1(3,7).1(9,13)]docosa-1(20),3(22),4,6,9(21),10,12,16,18-nonaen-11-yl]isoxazole-5-carboxamide trifluoroacetate] | 16 | 15 | – | 41 | 46 | IC50 [3, 6]: > 10000 nM
5 | O=C(CC1CCN(C(=O)c2ccc(F)cc2)CC1)Nc1ccc2cc1CCc1cncc(c1)Nc1ncc(Cl)c(n1)N2 [Example A193, N-[6-Chloro-2,4,8,18,22-pentaazatetracyclo[14.3.1.1(3,7).1(9,13)]docosa-1(20),3(22),4,6,9(21),10,12,16,18-nonaen-12-yl]-2-[1-(4-fluorobenzoyl)piperidin-4-yl]acetamide bis(trifluoroacetate)] | – | – | – | – | – | IC50 [1, 7]: 12 nM; IC50 [2, 8]: > 200 nM; ALK % of inhibition at a concentration of 500 nM or 1 mM [3, 9]: 31%; IC50 [4, 10]: > 200 nM; IC50 (TYK2): > 200 nM
6 | Clc1cnc2nc1Nc1cccc(c1)OCCc1cc(cc(-c3cccnc3)c1)N2 [Example D26, 6-Chloro-19-pyridin-3-yl-14-oxa-2,4,8,23-tetraazatetracyclo[15.3.1.1(3,7).1(9,13)]tricosa-1(21),3(23),4,6,9(22),10,12,17,19-nonaene bis(trifluoroacetate)] | – | – | – | – | – | IC50 ([1]; Table D1): 1.2 nM; IC50 ([2]; Table D1): 0.6 nM; IC50 ([3]; Table D1, 90 μM ATP): 138 nM; IC50 ([4]; Table D1): 8.5 nM; IC50 (TYK2; Table D1): 2.7 nM
7 | Clc1cnc2nc1Nc1cc(cc(CN3CCN(Cc4cc(Br)cs4)CC3)c1)CCc1cccc(c1)N2 [Example B196, 11-({4-[(4-Bromo-2-thienyl)methyl]piperazin-1-yl}methyl)-6-chloro-2,4,8,22-tetraazatetracyclo[14.3.1.1(3,7).1(9,13)]docosa-1(20),3(22),4,6,9(21),10,12,16,18-nonaene tris(trifluoroacetate)] | 3.5 | 0.88 | – | 48 | 111 | IC50 [3, 6]: > 10000 nM
8 | Cc1cc(C(=O)N2CCC(CC(=O)Nc3ccc4cc3CCc3cccc(c3)Nc3ncc(Cl)c(n3)N4)CC2)n[nH]1 [Example A175, N-[6-Chloro-2,4,8,22-tetraazatetracyclo[14.3.1.1(3,7).1(9,13)]docosa-1(20),3(22),4,6,9(21),10,12,16,18-nonaen-12-yl]-2-{1-[(5-methyl-1H-pyrazol-3-yl)carbonyl]piperidin-4-yl}acetamide bis(trifluoroacetate)] | – | – | – | – | – | IC50 [1, 7]: 1 nM; IC50 [2, 8]: 13 nM; ALK % of inhibition at a concentration of 500 nM or 1 mM [3, 9]: 28%; IC50 [4, 10]: > 200 nM; IC50 (TYK2): 1.8 nM
9 | O=C(Nc1ccc2cc1CCc1cccc(c1)Nc1ncc(Cl)c(n1)N2)c1cnn2ccccc12 [Example B80, N-[6-Chloro-2,4,8,22-tetraazatetracyclo[14.3.1.1(3,7).1(9,13)]docosa-1(20),3(22),4,6,9(21),10,12,16,18-nonaen-12-yl]pyrazolo[1,5-a]pyridine-3-carboxamide bis(trifluoroacetate)] | 0.56 | 0.53 | 73 | 1.7 | 1.2 | –
10 | Cc1cccc(C(=O)Nc2ccc3cc2CCc2cccc(c2)Nc2ncc(Cl)c(n2)N3)c1 [Example B46, N-[6-Chloro-2,4,8,22-tetraazatetracyclo[14.3.1.1(3,7).1(9,13)]docosa-1(20), 3(22),4,6,9(21),10,12,16,18-nonaen-12-yl]-3-methylbenzamide trifluoroacetate] | 2.5 | 2.3 | – | 9.7 | 3.6 | IC50 [3, 6]: 330 nM
11 | O=C(Nc1ccc2cc1CCc1cccc(c1)Nc1ncc(Cl)c(n1)N2)c1cccc(F)c1 [Example B48, N-[6-Chloro-2,4,8,22-tetraazatetracyclo[14.3.1.1(3,7).1(9,13)]docosa-1(20), 3(22),4,6,9(21),10,12,16,18-nonaen-12-yl]-3-fluorobenzamide trifluoroacetate] | 0.96 | 0.44 | – | 2.6 | 1.7 | IC50 [3, 6]: 160 nM
12 | O=C(Nc1ccc2c(c1)CCC2)Nc1ccc2cc1CCc1cccc(c1)Nc1ncc(Cl)c(n1)N2 [Example B103, N-[6-Chloro-2,4,8,22-tetraazatetracyclo[14.3.1.1(3,7).1(9,13)]docosa-1(20), 3(22),4,6,9(21),10,12,16,18-nonaen-12-yl]-N′-(2,3-dihydro-1H-inden-5-yl)urea trifluoroacetate] | 9 | 31 | 49 | 124 | 46 | –

Now from value to compound, other results behind:

Row | IC50 ([1]; Table B1) [nM] | IC50 ([2]; Table B1) [nM] | ALK % of inhibition at a concentration of 500 nM or 1 mM [3, 5] [%] | IC50 ([4]; Table B1) [nM] | IC50 (TYK2; Table B1) [nM] | SMILES | other results
13 | 0.56 | 1.7 | – | 27 | 5.2 | O=C(Nc1ccccc1)Nc1ccc2cc1CCc1cccc(c1)Nc1ncc(Cl)c(n1)N2 [Example B83, N-[6-Chloro-2,4,8,22-tetraazatetracyclo[14.3.1.1(3,7).1(9,13)]docosa-1(20), 3(22),4,6,9(21),10,12,16,18-nonaen-12-yl]-N′-phenylurea trifluoroacetate] | IC50 [3, 6]: 780 nM
14 | 1.1 | 2.8 | 21 | 17 | 4.5 | O=C(NCc1ccco1)Nc1ccc2cc1CCc1cccc(c1)Nc1ncc(Cl)c(n1)N2 [Example B117, N-[6-Chloro-2,4,8,22-tetraazatetracyclo[14.3.1.1(3,7).1(9,13)]docosa-1(20), 3(22),4,6,9(21),10,12,16,18-nonaen-12-yl]-N′-(2-furylmethyl)urea trifluoroacetate] | –
15 | 0.69 | 1.8 | 32 | 13 | 9.2 | O=C(Nc1ccc2cc1CCc1cccc(c1)Nc1ncc(Cl)c(n1)N2)Nc1ccccc1OC(F)F [Example B128, N-[6-Chloro-2,4,8,22-tetraazatetracyclo[14.3.1.1(3,7).1(9,13)]docosa-1(20), 3(22),4,6,9(21),10,12,16,18-nonaen-12-yl]-N′-[2-(difluoromethoxy)phenyl]urea trifluoroacetate] | –
16 | 3.5 | 23 | 14 | 163 | 55 | O=C(Nc1ccc2cc1CCc1cccc(c1)Nc1ncc(Cl)c(n1)N2)N[C@H]1CCN(Cc2ccccc2)C1 [Example B173, N-[(3S)-1-Benzylpyrrolidin-3-yl]-N′-[6-chloro-2,4,8,22-tetraazatetracyclo[14.3.1.1(3,7).1(9,13)]docosa-1(20),3(22),4,6,9(21),10,12,16,18-nonaen-12-yl]urea bis(trifluoroacetate)] | –
17 | 0.82 | 1.1 | 24 | 17 | 2.6 | CS(=O)(=O)N1CC[C@H](NC(=O)Nc2ccc3cc2CCc2cccc(c2)Nc2ncc(Cl)c(n2)N3)C1 [Example B172, N-[6-Chloro-2,4,8,22-tetraazatetracyclo[14.3.1.1(3,7).1(9,13)]docosa-1(20),3(22),4,6,9(21),10,12,16,18-nonaen-12-yl]-N′-[(3S)-1-(methylsulfonyl)pyrrolidin-3-yl]urea trifluoroacetate] | –

Source: patent US8871753B2, “Macrocyclic compounds and their use as kinase inhibitors” (Incyte Corporation, priority 2008, dated 2014)
